Measured values from patent publication US20230219963A1, “PYRROLO[2,3-D]PYRIMIDINE DERIVATIVES” (Pfizer Inc., priority 2020, published 2023).

Tests used:
[1] = target: JAK1 (Homo sapiens, UniProt P23458); experiment: JAK Caliper Enzyme Assay at 1 mM ATP (JAK1); assay type: biochemical
Protocol: JAK Caliper Enzyme Assay at 1 mM ATP
Test article was solubilized in dimethyl sulfoxide (DMSO) to a stock concentration of 30 mM. An 11-point half log dilution series was created in DMSO with a top concentration of 600 μM. […] The compound plates were diluted 1 to 60 resulting in a top final assay compound concentration of 10 μM and a 2% DMSO concentration. Test article and assay controls were added to a 384-well plate. Reaction mixtures contained 20 mM HEPES, pH 7.4, 10 mM magnesium chloride, 0.01% bovine serum albumin (BSA), 0.0005% Tween 20, 1 mM ATP and 1 μM peptide substrate. […] The assays were initiated by the addition of 20 nM JAK1, 1 nM JAK2, 1 nM JAK3 or 1 nM TYK2 enzyme and were incubated at room temperature for three hours for JAK1, 60 minutes for JAK2, 75 minutes for JAK3 or 135 minutes for TYK2. Enzyme concentrations and incubation times were optimized for each new enzyme preps and were modified slightly over time to ensure 20%-30% phosphorylation. The assays were stopped with a final concentration of 10 mM EDTA, 0.1% Coating Reagent and 100 mM HEPES, pH=7.4. The assay plates were placed on a Caliper Life Science Lab Chip 3000 (LC3000) instrument, and each well was sampled using appropriate separation conditions to measure the unphosphorylated and phosphorylated peptide.

[2] = test system: IL-13 induced pSTAT6; experiment: IL-13-induced pSTAT6 in human keratinocytes; assay type: cell-based; settings: Keratinocyte, JAK1/JAK2, read-out: IL-13 induced pSTAT6, cellular potency IC50
Protocol: Human whole blood was collected from healthy donors via vein puncture into Vacutainer collection tubes containing sodium heparin in accordance with Pfizer protocols (Protocol No. GOHW RDP-01) approved by the Shulman Institutional Review Board. Blood was warmed to 37° C. priorto use. Human whole blood was aliquoted (90 μL/well) in 96-well, deep-well, V-bottom plates and treated with compounds (5 μL/well) at different concentrations up to 60 μM (0.2% DMSO final) at 37° C. for 60 minutes. This was followed by a challenge with IFNα (5000 U/mL), IFNγ (100 ng/mL), IL-6 (50 ng/mL), IL-10 (30 ng/mL), IL-12 (30 ng/mL), IL-15 (30 ng/mL), IL-21 (50 ng/mL), IL-23 (25 ng/mL), IL-27 (1000 ng/mL), EPO (2 U/mL), TSLP (50 ng/mL) or PBS and incubated for 15 minutes. Anti-cell surface antibodies were added 15 minutes prior to cytokine stimulation; anti-CD3-BV421 (0.5 μL/well) to IL-6-treated and TSLP-treated samples and anti-CD14-BV421 (0.5 μL/well) to IFNγ-treated samples. Samples were treated with warm 1×Lyse/Fix buffer (700 μL/well) to terminate activation and further incubated at 37° C. for 20 minutes to lyse red blood cells. Plates were centrifuged at 300×g for 5 minutes, supernatant was aspirated, and cells were washed with 800 μL/well of staining buffer (D-PBS containing 0.1% FBS and 0.01% sodium azide). Washed cell pellets were resuspended in 350 μL/well of prechilled 90% methanol and incubated at 4° C. for 30 minutes. After the removal of 90% methanol, cells were washed once with staining buffer. […]
After overnight incubation at 4° C., anti-pSTAT stained samples were transferred into 96-well polypropylene U-bottom plates and flow cytometric analysis was performed on a LSR Fortessa™ equipped with a HTS plate loader. […] Background fluorescence was defined using unstimulated cells and a gate was placed at the foot of the peak to include ˜0.5% gated population. […]

Sequence of JAK1 (P23458 whole entry): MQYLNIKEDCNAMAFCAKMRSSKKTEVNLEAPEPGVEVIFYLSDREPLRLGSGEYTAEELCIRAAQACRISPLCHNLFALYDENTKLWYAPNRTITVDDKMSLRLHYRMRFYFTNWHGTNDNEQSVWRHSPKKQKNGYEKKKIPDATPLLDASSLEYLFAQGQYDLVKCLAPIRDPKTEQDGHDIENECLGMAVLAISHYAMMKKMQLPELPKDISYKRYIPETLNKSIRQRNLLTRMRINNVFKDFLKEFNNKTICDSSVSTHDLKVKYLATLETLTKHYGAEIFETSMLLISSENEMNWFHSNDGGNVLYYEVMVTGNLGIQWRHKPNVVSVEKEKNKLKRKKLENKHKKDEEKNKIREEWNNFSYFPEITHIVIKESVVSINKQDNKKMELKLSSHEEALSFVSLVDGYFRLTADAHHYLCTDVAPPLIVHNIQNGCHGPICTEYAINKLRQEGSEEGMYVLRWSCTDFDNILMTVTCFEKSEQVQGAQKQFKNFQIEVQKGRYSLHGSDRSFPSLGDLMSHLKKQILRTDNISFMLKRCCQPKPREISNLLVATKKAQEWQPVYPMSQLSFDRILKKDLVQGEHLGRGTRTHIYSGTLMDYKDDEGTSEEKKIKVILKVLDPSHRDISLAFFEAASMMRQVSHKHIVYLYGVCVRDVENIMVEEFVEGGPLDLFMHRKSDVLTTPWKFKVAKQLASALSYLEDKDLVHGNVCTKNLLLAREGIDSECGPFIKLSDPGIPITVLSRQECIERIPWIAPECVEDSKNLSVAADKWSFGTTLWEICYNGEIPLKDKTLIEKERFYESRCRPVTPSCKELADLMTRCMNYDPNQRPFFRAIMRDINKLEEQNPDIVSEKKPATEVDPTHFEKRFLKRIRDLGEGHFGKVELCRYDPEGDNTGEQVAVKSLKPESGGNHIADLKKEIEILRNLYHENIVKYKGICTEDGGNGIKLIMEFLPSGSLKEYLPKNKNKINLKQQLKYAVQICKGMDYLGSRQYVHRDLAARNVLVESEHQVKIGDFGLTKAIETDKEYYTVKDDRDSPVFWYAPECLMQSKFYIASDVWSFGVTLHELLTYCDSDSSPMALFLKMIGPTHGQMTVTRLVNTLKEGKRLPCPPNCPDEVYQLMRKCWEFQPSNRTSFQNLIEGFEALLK

IC50 [1] [nM] | IC50 [2] [nM] | SMILES
17.9 | 84.1 | C[C@H](O)CS(=O)(=O)N[C@H]1C[C@@H](N(C)c2ncnc3[nH]ccc23)C1 (single isomer, unassigned) [IA (M2)]
56.7 |  | C[C@@H](O)CS(=O)(=O)N[C@H]1C[C@@H](N(C)c2ncnc3[nH]ccc23)C1 (single isomer, unassigned) [IC (M3)]
43.4 | 236 | CN(c1ncnc2[nH]ccc12)[C@H]1C[C@@H](NS(=O)(=O)CCCO)C1 [IB (M1), 3-Hydroxy-N-(cis-3-(methyl(7H-pyrrolo[2,3-d]pyrimidin-4-yl)amino)cyclobutyl)propane-1-sulfonamide]
